Laboratory results reported in publication PMC4822253, “Inhibition of BMP and of TGFβ receptors downregulates expression of XIAP and TAK1 leading to lung cancer cell death” (Molecular Cancer, 2016).

Biological target: Alk6 (Homo sapiens, UniProt O00238)
Conditions: read-out: IC50 Alk6/BMPRII; kinase activity; ATP 10 Micromolar; 10-point, duplicate
Procedure: This was a 10-point assay starting from 100 μM to 100 nM performed in duplicate. The ATP concentration was 10 Micromolar.

Sequence of Alk6 (O00238 149-502 limits assumed): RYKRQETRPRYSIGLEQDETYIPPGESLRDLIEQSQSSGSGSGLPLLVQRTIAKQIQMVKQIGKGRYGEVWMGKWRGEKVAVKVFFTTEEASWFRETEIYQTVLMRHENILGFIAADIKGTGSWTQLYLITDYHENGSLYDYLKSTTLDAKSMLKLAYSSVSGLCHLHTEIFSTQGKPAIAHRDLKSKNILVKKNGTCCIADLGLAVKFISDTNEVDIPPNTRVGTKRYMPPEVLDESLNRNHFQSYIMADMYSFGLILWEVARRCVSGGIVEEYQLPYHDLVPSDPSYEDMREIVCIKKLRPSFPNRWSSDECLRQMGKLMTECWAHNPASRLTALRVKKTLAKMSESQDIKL

## c1ccc2c(-c3cnn4cc(-c5ccc(OCCN6CCOCC6)cc5)cnc34)ccnc2c1 [DMH2]
  IC50: 43 nM
